Source: the NIST ThermoML archive (doi:10.1021/je100068y)
“And” between values parts separate entries of the source, which are not always exact repeats. Equal values may be shown once.

What was measured:
[1] = mn = molality of the nth substance listed, in mol/kg; conditions: 101.33 kPa, Liquid, m1 = 0.05
[2] = cn = amount concentration of the nth substance listed, in mol/dm3; conditions: 101.33 kPa, Liquid, Alternating current cell with electrodes

CCCCCCCCCCCCOS(=O)(=O)[O-].[Na+] [sodium dodecyl sulfate] + O
[1]
Conditions	mass density
298.15 K	999.198 kg/m3 and 999.155 kg/m3
303.15 K	997.657 kg/m3 and 997.661 kg/m3
308.15 K	995.989 kg/m3 and 995.962 kg/m3
313.15 K	994.178 kg/m3 and 994.186 kg/m3

electrical conductivity [S/m], [2]
Conditions	288.15 K	293.15 K	298.15 K	303.15 K	308.15 K
c1 = 0.003022	0.0165	0.0184	0.0207	0.0234	0.0258
c1 = 0.004552	0.0247	0.0279	0.0313	0.0349	0.0386
c1 = 0.005661	0.0304	0.0344	0.0388	0.0431	0.0477
c1 = 0.006744	0.0361	0.0408	0.0458	0.051	0.0564
c1 = 0.007679	0.0408	0.0461	0.0517	0.0577	0.0638
c1 = 0.008765	0.0447	0.0502	0.0565	0.0632	0.0704
c1 = 0.009933	0.0474	0.0532	0.06	0.0671	0.0751
c1 = 0.0111	0.0497	0.0559	0.0632	0.0708	0.0793
c1 = 0.01221	0.0518	0.0584	0.0661	0.074	0.083
c1 = 0.01335	0.0538	0.0609	0.0688	0.0774	0.0869
c1 = 0.01444	0.0558	0.0632	0.0715	0.0805	0.0904
c1 = 0.0156	0.058	0.0657	0.0745	0.084	0.0944
c1 = 0.01674	0.0601	0.0683	0.0775	0.0873	0.098
